Here are results for seven compounds from US20240018153A1, “BENZENESULFONAMIDE DERIVATIVES AND USES THEREOF” (2692372 ONTARIO, INC., priority 2020, published 2024).

In general, remaining activity refers to the activity still measured, relative to the control. Broadly, the IC50 is the concentration that inhibits the measured activity by half.

Assay [1] addresses T1, EGFR (Homo sapiens (Human), UniProt P00533). The experiment in a line: HTRF KinEASE-TK kinase assay, EGFR. It is filed as biochemical. As to conditions: 3 h preincubation; for remaining activity at 1 µM: 1 μM compound, read-out: % EGFR Remaining activity vs DMSO (1 μM, 3 h); for remaining activity at 10 µM: 10 μM compound, read-out: % EGFR Remaining activity vs DMSO (10 μM, 3 h); for IC50: dose response, read-out: EGFR Inhibition IC50. In a few lines:
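Buffer contained 5 mM MgCl2, 2 mM MnCl2 and 1 mM TCEP; compounds at two final concentrations, 1 and 10 uM, with 0.5% DMSO, pre-incubated with the enzyme.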

Assay [2] deals with T1, EGFR. Kind of assay: A549 cell lysis and immunoassay, phospho-EGFR (Y1068) inhibition. As to conditions: A549 cells. The format is cell-based. Set-up: key: X: EGFR bound and autophosphoration of EGFR inhibited in cells. On the procedure: A549 cells (ATCC) were cultured in Dulbecco's Modified Eagle's Medium (DMEM) (Wisent) supplemented with 10% FBS and 1% penicillin/streptomycin. Cells were seeded in 6-well plates at 530,000 cells/well and incubated at 37° C., 5% CO2 for 16 hours. Cells were starved in DMEM containing 1% FBS for 4 hours before they were treated with the indicated concentrations of compound or DMSO alone and incubated at 37° C., 5% CO2 for 24 hours. Prior to cell harvest and lysis, 50 ng/ml human epidermal growth factor (hEGF) (Sigma) was added to the cells and incubated at 37° C., 5% CO2 for 10 minutes. Conditioned media was discarded, and adherent cells were washed with PBS before they were scraped on ice. Cell suspensions were centrifugated at 2,000 RPM for 5 minutes at 4° C. and supernatants were discarded. Cell pellets were resuspended with 1× RIPA buffer (Millipore) and incubated on ice for 15 minutes. Protein lysates were extracted by centrifugating at 20,000 RPM for 20 minutes at 4° C. Proteins were separated and total EGFR protein levels were quantified by Simple Western Immunoassay (ProteinSimple) using the Protein Normalization Assay Module for Jess according to the manufacturer's protocol, using a protein concentration of 0.125 μg/μl and an antibody targeting EGFR (clone #EP38Y, Abcam) diluted to 1:400. Phosphorylated EGFR protein levels were quantified with the same assay using a protein concentration of 1 μg/μl and an antibody targeting pEGFR (Y1068) (Cell Signalling) diluted to 1:25. EGFR and phosphorylated EGFR levels were normalized to the Jess Protein Normalization Reagent loading control and subsequently to the DMSO control.

Assay [3] has as its target BTK (Homo sapiens (Human), UniProt Q06187). The experiment in a line: HTRF KinEASE-TK kinase assay, BTK. It is filed as biochemical. To be noted: 3 h preincubation; for remaining activity at 1 µM: 1 μM compound, read-out: % BTK Remaining activity vs DMSO (1 μM, 3 h); for remaining activity at 10 µM: 10 μM compound, read-out: % BTK Remaining activity vs DMSO (10 μM, 3 h). In a few lines: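 Read-out was the 665 nm to 620 nm ratio, taken 60 min after detection, reflecting phosphorylated biotinylated substrate. Before this, BTK reacted 45 min with substrate and ATP in kinase buffer supplemented with MnCl2 (10 mM), MgCl2 (5 mM), ATPγS (1 uM) and TCEP (1 mM).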
Background: Time-resolved FRET reads energy transfer from a long-lived donor to a nearby acceptor.

The target of assay [4] is BMX (Homo sapiens (Human), UniProt P51813). The experiment in a line: HTRF KinEASE-TK kinase assay, BMX. It is filed as biochemical. To be noted: for remaining activity at 1 µM: 1 uM compound; for remaining activity at 1 µM / remaining activity at 10 µM: 3 h preincubation; for remaining activity at 10 µM: 10 uM compound; for IC50: dose response. In a few lines:
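Phosphorylation was quantified by HTRF KinEASE-TK as the 665/620 nm ratio, read 60 min after EDTA stop with SA-XL665 (31.25 nM) and europium antibody. Before the reaction, 3.03 nM BMX was preincubated with compound for 3 hours at room temperature, and the reaction was started with biotinylated substrate plus ATP.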

Assay [5] concerns the target JAK3 (Homo sapiens (Human), UniProt P52333). Kind of assay: HTRF KinEASE-TK kinase assay, JAK3. The format is biochemical. To be noted: for remaining activity at 1 µM: read-out: % JAK3 Remaining activity vs DMSO (1 μM, 3 h); for remaining activity at 10 µM: read-out: % JAK3 Remaining activity vs DMSO (10 μM, 3 h). In a few lines:
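HTRF read-out: the Em665/Em620 ratio, measured 60 min after stopping with EDTA, 31.25 nM SA-XL665 and 100-fold diluted Eu-antibody, was taken as phosphorylated substrate. Beforehand, 0.21 nM JAK3 (0.0133 ng/µl) sat with compound for 3 h at room temperature, then biotinylated substrate plus ATP started the reaction.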

For assay [6], the target named is FGFR4 (Homo sapiens (Human), UniProt P22455). Kind of assay: HTRF KinEASE-TK kinase assay, FGFR4. It is filed as biochemical. To be noted: for remaining activity at 1 µM: read-out: % FGFR4 Remaining activity vs DMSO (1 μM, 3 h); for remaining activity at 10 µM: read-out: % FGFR4 Remaining activity vs DMSO (10 μM, 3 h). In a few lines: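 HTRF ratio (Em 665/620 nm) measured 60 min after EDTA stop with SA-XL665 (31.25 nM) and europium antibody reflects phosphorylated biotinylated substrate. Before substrate/ATP addition, 5.12 nM (0.333 ng/ul) FGFR4 sat with compound 3 h at room temperature.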
Chain of FGFR4 (P22455 22-802): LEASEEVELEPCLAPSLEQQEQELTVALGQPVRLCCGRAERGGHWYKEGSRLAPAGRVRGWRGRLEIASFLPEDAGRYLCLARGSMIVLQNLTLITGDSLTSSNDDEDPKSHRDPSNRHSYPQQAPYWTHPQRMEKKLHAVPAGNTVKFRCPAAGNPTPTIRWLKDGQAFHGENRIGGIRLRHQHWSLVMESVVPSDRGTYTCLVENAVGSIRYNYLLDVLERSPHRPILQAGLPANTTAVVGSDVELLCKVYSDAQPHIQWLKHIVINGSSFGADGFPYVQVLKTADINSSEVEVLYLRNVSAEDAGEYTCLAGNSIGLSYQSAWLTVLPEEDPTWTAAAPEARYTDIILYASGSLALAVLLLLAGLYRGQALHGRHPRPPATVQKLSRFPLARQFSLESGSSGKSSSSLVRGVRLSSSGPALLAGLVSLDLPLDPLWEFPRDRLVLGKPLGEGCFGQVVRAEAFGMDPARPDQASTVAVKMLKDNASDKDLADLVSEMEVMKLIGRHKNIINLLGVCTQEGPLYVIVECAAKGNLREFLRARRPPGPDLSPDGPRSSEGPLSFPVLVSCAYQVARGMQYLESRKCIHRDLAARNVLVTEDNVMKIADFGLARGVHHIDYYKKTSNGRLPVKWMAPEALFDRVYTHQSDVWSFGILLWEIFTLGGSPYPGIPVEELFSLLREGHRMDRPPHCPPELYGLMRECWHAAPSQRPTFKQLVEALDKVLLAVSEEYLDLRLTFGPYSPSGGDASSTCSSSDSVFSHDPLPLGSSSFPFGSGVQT

Where only a bound is given, the exact number is not on record here.

Chain of JAK3 (P52333 781-1124): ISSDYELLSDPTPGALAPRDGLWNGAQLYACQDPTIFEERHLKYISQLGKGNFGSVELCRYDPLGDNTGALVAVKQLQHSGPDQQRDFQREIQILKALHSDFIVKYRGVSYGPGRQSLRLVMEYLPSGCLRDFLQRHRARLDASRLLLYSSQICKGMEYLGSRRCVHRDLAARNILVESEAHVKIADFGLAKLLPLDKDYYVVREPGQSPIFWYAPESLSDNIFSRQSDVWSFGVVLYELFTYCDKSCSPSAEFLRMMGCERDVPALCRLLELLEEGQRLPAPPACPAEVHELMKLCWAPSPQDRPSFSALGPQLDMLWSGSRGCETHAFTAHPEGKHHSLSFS
T1 sequence (P00533 25-1210): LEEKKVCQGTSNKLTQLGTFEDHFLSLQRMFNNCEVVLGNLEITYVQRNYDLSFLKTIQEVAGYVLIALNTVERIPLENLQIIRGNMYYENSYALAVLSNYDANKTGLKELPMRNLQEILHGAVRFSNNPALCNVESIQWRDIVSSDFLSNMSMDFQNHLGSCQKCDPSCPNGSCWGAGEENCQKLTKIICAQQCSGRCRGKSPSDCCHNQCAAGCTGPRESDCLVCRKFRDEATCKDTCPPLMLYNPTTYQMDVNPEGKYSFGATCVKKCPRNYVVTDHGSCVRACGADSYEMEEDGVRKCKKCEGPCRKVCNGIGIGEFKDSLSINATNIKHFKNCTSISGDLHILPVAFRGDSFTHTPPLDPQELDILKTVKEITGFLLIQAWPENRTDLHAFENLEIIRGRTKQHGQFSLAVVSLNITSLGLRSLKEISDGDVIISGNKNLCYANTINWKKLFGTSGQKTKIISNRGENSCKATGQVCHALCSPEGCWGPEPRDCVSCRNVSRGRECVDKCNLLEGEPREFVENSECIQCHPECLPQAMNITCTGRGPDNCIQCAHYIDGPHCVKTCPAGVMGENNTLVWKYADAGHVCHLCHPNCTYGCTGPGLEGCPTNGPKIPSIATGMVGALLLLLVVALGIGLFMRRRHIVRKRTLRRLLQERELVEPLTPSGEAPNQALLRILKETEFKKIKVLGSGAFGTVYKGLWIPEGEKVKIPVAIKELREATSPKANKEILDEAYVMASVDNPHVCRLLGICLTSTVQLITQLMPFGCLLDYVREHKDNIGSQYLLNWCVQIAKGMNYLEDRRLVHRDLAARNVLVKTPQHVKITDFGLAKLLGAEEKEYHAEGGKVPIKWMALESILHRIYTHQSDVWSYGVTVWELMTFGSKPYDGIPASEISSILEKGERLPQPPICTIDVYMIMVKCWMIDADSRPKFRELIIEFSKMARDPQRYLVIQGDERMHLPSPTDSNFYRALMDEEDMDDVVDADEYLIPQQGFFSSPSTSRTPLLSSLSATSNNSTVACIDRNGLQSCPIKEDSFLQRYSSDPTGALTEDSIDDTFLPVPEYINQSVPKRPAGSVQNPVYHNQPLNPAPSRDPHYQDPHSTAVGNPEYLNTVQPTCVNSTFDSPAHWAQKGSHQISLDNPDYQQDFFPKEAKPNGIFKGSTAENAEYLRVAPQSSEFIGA
Chain of BTK (Q06187 whole entry): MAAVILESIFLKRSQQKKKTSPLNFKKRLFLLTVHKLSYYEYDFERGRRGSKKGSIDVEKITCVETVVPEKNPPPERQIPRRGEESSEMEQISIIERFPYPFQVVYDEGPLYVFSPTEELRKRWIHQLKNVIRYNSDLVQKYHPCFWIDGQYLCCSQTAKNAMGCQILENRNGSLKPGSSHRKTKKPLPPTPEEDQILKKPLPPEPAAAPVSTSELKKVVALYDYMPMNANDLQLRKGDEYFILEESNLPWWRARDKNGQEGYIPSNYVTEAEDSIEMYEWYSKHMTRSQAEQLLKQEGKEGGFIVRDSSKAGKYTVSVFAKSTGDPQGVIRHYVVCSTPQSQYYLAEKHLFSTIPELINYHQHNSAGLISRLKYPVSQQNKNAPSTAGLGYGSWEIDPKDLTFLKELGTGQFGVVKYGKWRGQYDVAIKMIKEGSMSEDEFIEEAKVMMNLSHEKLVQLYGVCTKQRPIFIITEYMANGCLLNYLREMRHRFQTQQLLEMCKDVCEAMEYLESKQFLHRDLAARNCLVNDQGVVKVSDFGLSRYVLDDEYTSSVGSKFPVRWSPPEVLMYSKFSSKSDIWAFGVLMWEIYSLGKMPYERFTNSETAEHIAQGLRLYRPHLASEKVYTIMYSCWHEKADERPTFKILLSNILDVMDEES
Chain of BMX (P51813 whole entry): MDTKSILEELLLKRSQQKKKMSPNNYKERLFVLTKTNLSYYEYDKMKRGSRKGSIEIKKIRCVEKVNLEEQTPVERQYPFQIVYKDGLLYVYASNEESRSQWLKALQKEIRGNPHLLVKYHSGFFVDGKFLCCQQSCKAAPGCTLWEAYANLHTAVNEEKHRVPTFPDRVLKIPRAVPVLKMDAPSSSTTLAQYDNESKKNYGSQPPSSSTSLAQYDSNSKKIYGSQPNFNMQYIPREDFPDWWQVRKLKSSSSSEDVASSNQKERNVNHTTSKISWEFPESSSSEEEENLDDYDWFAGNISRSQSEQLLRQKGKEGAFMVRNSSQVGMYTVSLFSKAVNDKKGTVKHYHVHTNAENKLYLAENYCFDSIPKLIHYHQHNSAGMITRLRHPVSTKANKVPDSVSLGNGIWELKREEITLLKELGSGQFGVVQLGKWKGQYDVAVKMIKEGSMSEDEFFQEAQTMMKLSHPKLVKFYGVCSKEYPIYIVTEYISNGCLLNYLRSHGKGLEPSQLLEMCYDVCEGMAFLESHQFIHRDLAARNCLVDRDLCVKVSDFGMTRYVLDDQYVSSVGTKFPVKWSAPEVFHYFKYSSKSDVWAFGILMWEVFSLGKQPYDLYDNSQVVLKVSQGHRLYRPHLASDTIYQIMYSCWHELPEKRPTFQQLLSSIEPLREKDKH

Turning to `CS(=O)(=O)c1c(F)c(F)c(F)c(F)c1C(=O)Nc1cc2c(Nc3ccc(F)c(Cl)c3)ncnc2cc1O[C@H]1CCOC1` [Compound I-5, (S)—N-(4-((3-chloro-4-fluorophenyl)amino)-7-((tetrahydrofuran-3-yl)oxy)quinazolin-6-yl)-2,3,4,5-tetrafluoro-6-(methylsulfonyl)benzamide], the remaining activity at 1 µM in assay [1] was less than 50%; in assay [3] it was less than 50%; in assay [4], 50 to 90%; in assay [5], 50 to 90%; in assay [6] it was more than 90%. Also, the remaining activity at 10 µM in assay [1] is less than 50%; in assay [3], less than 50%; in assay [4], less than 50%; in assay [5], less than 50%; in assay [6] it was more than 90%. The IC50 in assay [1] was less than 1000 nM. Further, the “pEGFR inhibition (A549, 1 μM, 24 h)” value in assay [2] is “X”. In addition, the “pEGFR inhibition (A549, compound concentration, 24 h)” value in assay [2] (compound concentration 10 μM) is “X”.

Turning to `CS(=O)(=O)c1c(F)c(F)c(F)c(F)c1C(=O)NCCCn1nc(-c2ccc(Oc3ccccc3)cc2)c2c(N)ncnc21` [Compound I-39, N-(3-(4-amino-3-(4-phenoxyphenyl)-1H-pyrazolo[3,4-d]pyrimidin-1-yl)propyl)-2,3,4,5-tetrafluoro-6-(methylsulfonyl)benzamide], the remaining activity at 1 µM was less than 50% in assay [1]; less than 50% in assay [3]; less than 50% in assay [4]; 50 to 90% in assay [5]; less than 50% in assay [6]. Further, the remaining activity at 10 µM in assay [1], in assay [3], in assay [4], in assay [5] and in assay [6] was less than 50% each time. In addition, the IC50 in assay [1] and in assay [6] (dose response) was less than 1000 nM in each case. Besides, the “pEGFR inhibition (A549, 1 μM, 24 h)” value in assay [2] was “X”. Further, the “pEGFR inhibition (A549, compound concentration, 24 h)” value in assay [2] (compound concentration 5 μM) was “X”.

As for `CN(C)S(=O)(=O)c1c(F)c(F)c(F)c(F)c1C(=O)NCCCn1nc(-c2ccc(Oc3ccccc3)cc2)c2c(N)ncnc21` [Compound I-41, N-(3-(4-amino-3-(4-phenoxyphenyl)-1H-pyrazolo[3,4-d]pyrimidin-1-yl)propyl)-2-(N,N-dimethylsulfamoyl)-3,4,5,6-tetrafluorobenzamide], the remaining activity at 1 µM in assay [1] was less than 50%; in assay [3], less than 50%; in assay [4], less than 50%; in assay [5], more than 90%; in assay [6], 50 to 90%. Further, the remaining activity at 10 µM was less than 50% in assay [1]; less than 50% in assay [3]; less than 50% in assay [4]; more than 90% in assay [5]; less than 50% in assay [6]. For the same compound, the “pEGFR inhibition (A549, 1 μM, 24 h)” value in assay [2] was “X”. Besides, the IC50 in assay [4] is less than 1000 nM.

Turning to `COCCOc1ccc(Nc2ncc(F)c(Nc3cccc(Nc4c(F)c(F)c(F)c(F)c4S(C)(=O)=O)c3)n2)cc1` [Compound I-64, 5-fluoro-N^2-(4-(2-methoxyethoxy)phenyl)-N^4-(3-((2,3,4,5-tetrafluoro-6-(methylsulfonyl)phenyl)amino)phenyl)pyrimidine-2,4-diamine], the remaining activity at 1 µM in assay [1] is more than 90%; in assay [3] it was less than 50%; in assay [4], less than 50%; in assay [5] it was 50 to 90%; in assay [6], less than 50%. In addition, the remaining activity at 10 µM in assay [1] is more than 90%; in assay [3] it was less than 50%; in assay [4] it was less than 50%; in assay [5] it was less than 50%; in assay [6], less than 50%. For the same compound, in assay [2], the “pEGFR inhibition (A549, 1 μM, 24 h)” value is on record as “X”.

For `C[S+]([O-])c1c(F)c(F)c(F)c(F)c1C(=O)N1CCC[C@@H](n2nc(-c3ccc(Oc4ccccc4)cc3)c3c(N)ncnc32)C1` (stereo partly drawn) [Compound I-36, ((R)-3-(4-amino-3-(4-phenoxyphenyl)-1H-pyrazolo[3,4-d]pyrimidin-1-yl)piperidin-1-yl)(2,3,4,5-tetrafluoro-6-(methylsulfinyl)phenyl)methanone], the remaining activity at 1 µM is more than 90% in assay [1]; less than 50% in assay [3]; less than 50% in assay [4]; more than 90% in assay [5]; more than 90% in assay [6]. The remaining activity at 10 µM in assay [1] was more than 90%; in assay [3], less than 50%; in assay [4] it was less than 50%; in assay [5] it was 50 to 90%; in assay [6], less than 50%. Also, the “pEGFR inhibition (A549, 1 μM, 24 h)” value in assay [2] is given as “X”. Further, the “pEGFR inhibition (A549, compound concentration, 24 h)” value in assay [2] (compound concentration 10 μM) is given as “X”. Moreover, in assay [3] (dose response, read-out: BTK Inhibition IC50), the IC50 is less than 1000 nM.

Consider `NS(=O)(=O)c1c(F)c(F)c(F)c(F)c1C(=O)NCCNc1ncnc2[nH]ccc12` [Compound I-48], for which the remaining activity at 1 µM in assay [1] was more than 90%; in assay [3], less than 50%; in assay [4], less than 50%; in assay [5], 50 to 90%; in assay [6], more than 90%. The remaining activity at 10 µM in assay [1] was more than 90%; in assay [3], less than 50%; in assay [4], less than 50%; in assay [5], less than 50%; in assay [6], 50 to 90%. Further, the “pEGFR inhibition (A549, 1 μM, 24 h)” value in assay [2] is “X”. Besides, in assay [2] (compound concentration 10 μM), the “pEGFR inhibition (A549, compound concentration, 24 h)” value is “X”. For the same compound, in assay [4], the concentration for half-maximal inhibition (IC50) was less than 1000 nM.

Regarding `COCCOc1ccc(Nc2ncc(F)c(Nc3cccc(NC(=O)c4c(F)c(F)c(F)c(F)c4[S@+](C)[O-])c3)n2)cc1` (stereo in doubt) [Compound I-62, 2,3,4,5-tetrafluoro-N-(3-((5-fluoro-2-((4-(2-methoxyethoxy)phenyl)amino)pyrimidin-4-yl)amino)phenyl)-6-(methylsulfinyl)benzamide], the remaining activity at 1 µM is more than 90% in assay [1]; less than 50% in assay [3]; less than 50% in assay [4]; more than 90% in assay [5]; less than 50% in assay [6]. Also, the remaining activity at 10 µM in assay [1] is 50 to 90%; in assay [3], less than 50%; in assay [4], less than 50%; in assay [5], less than 50%; in assay [6], less than 50%. In addition, the “pEGFR inhibition (A549, 1 μM, 24 h)” value in assay [2] is “X”.
